Columns and labels:
[1] = system: EMT-6 mouse mammary tumor cells; test: antitumor activity in mice bearing subcutaneous EMT-6 mouse mammary tumor cells; assay type: in vivo
Method: A randomized trial was conducted to evaluate the antitumor activity of fosbretabulin tromethamine (CA4P) in mice bearing subcutaneous EMT-6 mouse mammary tumor cells in combination with other treatments. Other treatments include a combination treatment with anti-CTLA-4 antibody (ref: BE0131, Bioxcell; clone: 9H10; reactivity: mouse; isotype: Hamster IgG1; storage conditions: +4° C.).
CA4P and anti-CTLA-4 antibodies were prepared in phosphate buffered saline (PBS). CA4P was injected at the dose of 100 mg/kg. The anti-CTLA-4 antibody was injected at the dose of 10 mg/kg. The tested items were injected into the peritoneal cavity of mice (e.g. intraperitoneally, IP). The administration volume was 10 mL/kg (200 μL/mouse of 20 g) adjusted to the most recent individual body weight of the mice.
An EMT-6 cell line having an ATCC origin and a culture medium was used. The EMT-6 cell line was established from a transplantable murine mammary carcinoma that arose in a BALB/cCRGL mouse after implantation of a hyperplastic mammary alveolar nodule. EMT-6 tumor cells were grown as a monolayer at 37° C. in a humidified atmosphere (5% CO2, 95% air). The culture medium was RPMI 1640 containing 2 mM L-glutamine (ref: BE12-702F, Lonza, Verviers, Belgium) supplemented with 10% fetal bovine serum (ref: 3302, Lonza).
Healthy female Balb/C mice, 6-8 weeks old at reception, were used in the study. […]

[2] = system: T-cell mediated immune response; settings: J. Immunol. 2007; 178: 1573-1580; cited from earlier work

SMILES	average tumor size (tumor volume versus time, FIG. 1) ([1]; Balb/C mice, EMT-6 tumors, CA4P 100 mg/kg IP, anti-CTLA-4 10 mg/kg IP, TWx2)	mice showing tumor regression ([1]; groups of 8 Balb/C mice, subcutaneous EMT-6 tumors, CA4P 100 mg/kg IP TWx2, anti-CTLA-4 10 mg/kg IP TWx2)	effect on T-cell mediated immune response [2]
COc1ccc(/C=C\c2cc(OC)c(OC)c(OC)c2)cc1OP(=O)(O)O.NC(CO)(CO)CO [CA4P, fosbretabulin tromethamine]	steadily increased	One of the eight	–
COc1cc2c(c(OC)c1OC)-c1ccc(OP(=O)(O)O)cc1[C@@H](NC(C)=O)CC2 [ZD6126]	–	–	may reduce T-cell mediated immune response
